Measurements published in patent publication US20100041089A1, “IMPROVED METHOD FOR DETECTING CHEMICAL […]” (priority 2006, published 2010).

Test system: yeast genes (expressed mRNA)
Test: DNA chip measurement of expressed mRNA of yeast genes after culture with a toxic chemical substance
Type: cell-based, Saccharomyces cerevisiae S288C
How it was run: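 Two-hour exposure of growing S. cerevisiae S288C (YPD, 25° C) to a sublethal toxicant preceded RNA isolation. Fluorescent cDNA was hybridized to a whole-genome array; a treated-to-untreated signal ratio of two or more was taken as significant.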

## N#Cc1c(Cl)c(Cl)c(Cl)c(C#N)c1Cl [(9), 2,4,5,6-Tetrachloro-1,3-benzenedicarbonitrile]
Yeast gene YMR316W, cultured two hours with substance
  The level of expressed mRNA in the presence of chemical substance/The level of expressed mRNA in the absence of chemical substance: 2.1
Yeast gene YMR322C, cultured two hours with substance
  The level of expressed mRNA in the presence of chemical substance/The level of expressed mRNA in the absence of chemical substance: 21.3
Yeast gene YNL044W, cultured two hours with substance
  The level of expressed mRNA in the presence of chemical substance/The level of expressed mRNA in the absence of chemical substance: 0.8
Yeast gene YNL074C, cultured two hours with substance
  The level of expressed mRNA in the presence of chemical substance/The level of expressed mRNA in the absence of chemical substance: 1.5
Yeast gene YNL092W, cultured two hours with substance
  The level of expressed mRNA in the presence of chemical substance/The level of expressed mRNA in the absence of chemical substance: 2.3
Yeast gene YNL115C, cultured two hours with substance
  The level of expressed mRNA in the presence of chemical substance/The level of expressed mRNA in the absence of chemical substance: 2.6
Yeast gene YNL117W, cultured two hours with the chemical substance
  The level of expressed mRNA in the presence of chemical substance/The level of expressed mRNA in the absence of chemical substance: 12.8
Yeast gene YNL156C, cultured two hours with substance
  The level of expressed mRNA in the presence of chemical substance/The level of expressed mRNA in the absence of chemical substance: 2.4
Yeast gene YNL190W, cultured two hours with substance
  The level of expressed mRNA in the presence of chemical substance/The level of expressed mRNA in the absence of chemical substance: 1.1
Yeast gene YNL208W, cultured two hours with substance
  The level of expressed mRNA in the presence of chemical substance/The level of expressed mRNA in the absence of chemical substance: 2.3
Yeast gene YNL234W, cultured two hours with substance
  The level of expressed mRNA in the presence of chemical substance/The level of expressed mRNA in the absence of chemical substance: 2.6
Yeast gene YNL281W, cultured two hours with substance
  The level of expressed mRNA in the presence of chemical substance/The level of expressed mRNA in the absence of chemical substance: 2.8
Yeast gene YNL305C, cultured two hours with substance
  The level of expressed mRNA in the presence of chemical substance/The level of expressed mRNA in the absence of chemical substance: 2.9
Yeast gene YNL331C
  The level of expressed mRNA in the presence of chemical substance/The level of expressed mRNA in the absence of chemical substance: 42.6
Yeast gene YNL331C, cultured for two hours with substance
  The level of expressed mRNA in the presence of chemical substance/The level of expressed mRNA in the absence of chemical substance: 42.6
Yeast gene YNR068C, cultured two hours with substance
  The level of expressed mRNA in the presence of chemical substance/The level of expressed mRNA in the absence of chemical substance: 6.7
Yeast gene YOL030W, cultured two hours with the chemical substance
  The level of expressed mRNA in the presence of chemical substance/The level of expressed mRNA in the absence of chemical substance: 1.2
Yeast gene YOL032W, cultured two hours with substance
  The level of expressed mRNA in the presence of chemical substance/The level of expressed mRNA in the absence of chemical substance: 4.5
Yeast gene YOL036W, cultured two hours with substance
  The level of expressed mRNA in the presence of chemical substance/The level of expressed mRNA in the absence of chemical substance: 3.1
Yeast gene YOL047C, cultured two hours with substance
  The level of expressed mRNA in the presence of chemical substance/The level of expressed mRNA in the absence of chemical substance: 0.6
Yeast gene YOL071W, cultured two hours with substance
  The level of expressed mRNA in the presence of chemical substance/The level of expressed mRNA in the absence of chemical substance: 4.4
Yeast gene YOL082W, cultured two hours with substance
  The level of expressed mRNA in the presence of chemical substance/The level of expressed mRNA in the absence of chemical substance: 3.4
Yeast gene YOL083W, cultured two hours with substance
  The level of expressed mRNA in the presence of chemical substance/The level of expressed mRNA in the absence of chemical substance: 2.7
Yeast gene YOL117W, cultured two hours with substance
  The level of expressed mRNA in the presence of chemical substance/The level of expressed mRNA in the absence of chemical substance: 1.3
Yeast gene YOL131W, cultured two hours with substance
  The level of expressed mRNA in the presence of chemical substance/The level of expressed mRNA in the absence of chemical substance: 8.4
Yeast gene YOL150C, cultured two hours with substance
  The level of expressed mRNA in the presence of chemical substance/The level of expressed mRNA in the absence of chemical substance: 10.8
Yeast gene YOL162W, cultured two hours with substance
  The level of expressed mRNA in the presence of chemical substance/The level of expressed mRNA in the absence of chemical substance: 12.0
Yeast gene YOL165C
  The level of expressed mRNA in the presence of chemical substance/The level of expressed mRNA in the absence of chemical substance: 46.9
Yeast gene YOL165C, cultured for two hours with substance
  The level of expressed mRNA in the presence of chemical substance/The level of expressed mRNA in the absence of chemical substance: 46.9
Yeast gene YOR019W, cultured two hours with substance
  The level of expressed mRNA in the presence of chemical substance/The level of expressed mRNA in the absence of chemical substance: 3.5
Yeast gene YOR197W, cultured two hours with substance
  The level of expressed mRNA in the presence of chemical substance/The level of expressed mRNA in the absence of chemical substance: 0.8
Yeast gene YOR215C, cultured two hours with substance
  The level of expressed mRNA in the presence of chemical substance/The level of expressed mRNA in the absence of chemical substance: 2.1
Yeast gene YOR228C, cultured two hours with substance
  The level of expressed mRNA in the presence of chemical substance/The level of expressed mRNA in the absence of chemical substance: 1.4
Yeast gene YOR248W, cultured two hours with substance
  The level of expressed mRNA in the presence of chemical substance/The level of expressed mRNA in the absence of chemical substance: 0.1
Yeast gene YOR382W, cultured two hours with substance
  The level of expressed mRNA in the presence of chemical substance/The level of expressed mRNA in the absence of chemical substance: 1.1
Yeast gene YOR391C, cultured two hours with substance
  The level of expressed mRNA in the presence of chemical substance/The level of expressed mRNA in the absence of chemical substance: 18.8
Yeast gene YPL052W, cultured two hours with substance
  The level of expressed mRNA in the presence of chemical substance/The level of expressed mRNA in the absence of chemical substance: 2.0
Yeast gene YPL087W, cultured two hours with substance
  The level of expressed mRNA in the presence of chemical substance/The level of expressed mRNA in the absence of chemical substance: 1.0
Yeast gene YPL194W, DNA repair protein genes, cultured two hours with substance
  The level of expressed mRNA in the presence of chemical substance/The level of expressed mRNA in the absence of chemical substance: 9.6
Yeast gene YPL196W, cultured two hours with substance
  The level of expressed mRNA in the presence of chemical substance/The level of expressed mRNA in the absence of chemical substance: 10.9
Yeast gene YPL206C, cultured two hours with substance
  The level of expressed mRNA in the presence of chemical substance/The level of expressed mRNA in the absence of chemical substance: 1.7
Yeast gene YPL222W, cultured two hours with substance
  The level of expressed mRNA in the presence of chemical substance/The level of expressed mRNA in the absence of chemical substance: 7.4
Yeast gene YPL223C (stress protein genes)
  The level of expressed mRNA in the presence of chemical substance/The level of expressed mRNA in the absence of chemical substance: 29.4
Yeast gene YPL272C, cultured two hours with the chemical substance
  The level of expressed mRNA in the presence of chemical substance/The level of expressed mRNA in the absence of chemical substance: 1.2
Yeast gene YPL280W, cultured two hours with substance
  The level of expressed mRNA in the presence of chemical substance/The level of expressed mRNA in the absence of chemical substance: 49.8
Yeast gene YPR023C, cultured two hours with substance
  The level of expressed mRNA in the presence of chemical substance/The level of expressed mRNA in the absence of chemical substance: 4.4
Yeast gene YPR079W, cultured two hours with substance
  The level of expressed mRNA in the presence of chemical substance/The level of expressed mRNA in the absence of chemical substance: 1.7
Yeast gene YPR150W, cultured two hours with the chemical substance
  The level of expressed mRNA in the presence of chemical substance/The level of expressed mRNA in the absence of chemical substance: 1.2
Yeast gene YPR151C, cultured two hours with substance
  The level of expressed mRNA in the presence of chemical substance/The level of expressed mRNA in the absence of chemical substance: 3.0
Yeast gene YPR167C
  The level of expressed mRNA in the presence of chemical substance/The level of expressed mRNA in the absence of chemical substance: 76.6
